Measured values taken from patent US20230093861A1, “RAPAMYCIN ANALOGS AS MTOR INHIBITORS” (Revolution Medicines, Inc., priority 2017, published 2023).
Read-outs that look alike come from different tables or passages of the source.

Experiments:
[1] = test system: P-P70S6K (T389); experiment: Cell based AlphaLISA assay, inhibition of P-P70S6K (T389) (mTORC1 substrate phosphorylation) in MDA-MB-468 cells; conditions: Homo sapiens, 4 h, AlphaLISA, two to four hours at 37° C., read-out: pIC50 for Inhibition of mTORC1 and mTORC2 Substrate Phosphorylation, P-P70S6K-(T389) (converted)
In short: (§1)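 Phosphoprotein levels were quantified with AlphaLISA SureFire Ultra kits after compound treatment. Incubation ended by removing assay buffer and lysing cells, and the Alpha signal was read in duplicate. IC50 came from normalized concentration-response regression with control-based normalization.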

[2] = test system: P-4E-BP1 (T37/46); experiment: Cell based AlphaLISA assay, inhibition of P-4E-BP1 (T37/46) (mTORC1 substrate phosphorylation) in MDA-MB-468 cells; conditions: Homo sapiens, AlphaLISA, two to four hours at 37° C., read-out: pIC50 for Inhibition of mTORC1 and mTORC2 Substrate Phosphorylation, P-4E-BP1-(T37/46) (converted)
In short: as §1

[3] = test system: P-Akt (S473); experiment: Cell based AlphaLISA assay, inhibition of P-Akt (S473) (mTORC2 substrate phosphorylation) in MDA-MB-468 cells; conditions: Homo sapiens, AlphaLISA, two to four hours at 37° C., read-out: pIC50 for Inhibition of mTORC1 and mTORC2 Substrate Phosphorylation, p-AKT 1/2/3 -(S473) (converted)
In short: as §1

Row | SMILES | IC50 [1] [nM] | IC50 ([2]; MDA-MB-468, 4 h) [nM] | IC50 ([3]; MDA-MB-468, 4 h) [nM] | IC50 ([2]; 4 h) [nM] | IC50 ([3]; 4 h) [nM]
1 | CO[C@H]1C[C@@H]2CC[C@@H](C)[C@@](O)(O2)C(=O)C(=O)N2CCCC[C@H]2C(=O)O[C@H]([C@H](C)C[C@@H]2CC[C@@H](OCCCCc3cn(CCOCCOCCOCCNC(=O)CCCC(=O)NCCCCn4nc(-c5ccc6oc(N)nc6c5)c5c(N)ncnc54)nn3)[C@H](OC)C2)CC(=O)[C@H](C)/C=C(\C)[C@@H](O)[C@@H](OC)C(=O)[C@H](C)C[C@H](C)/C=C/C=C/C=C/1C [Example 100] | < 1 | 31.6 to 1000 | 3.16 to 31.6 |  | 
2 | CO[C@H]1C[C@@H]2CC[C@@H](C)[C@@](O)(O2)C(=O)C(=O)N2CCCC[C@H]2C(=O)O[C@H]([C@H](C)C[C@@H]2CC[C@H](n3cc(-c4cnc(N5CCN(c6ncc(C(=O)NCCOCCOCCOCCC(=O)NCCCCn7nc(-c8ccc9oc(N)nc9c8)c8c(N)ncnc87)cn6)CC5)nc4)nn3)[C@H](OC)C2)CC(=O)[C@H](C)/C=C(\C)[C@@H](O)[C@@H](OC)C(=O)[C@H](C)C[C@H](C)/C=C/C=C/C=C/1C [Example 113] | < 1 | < 3.16 | 3.16 to 31.6 |  | 
3 | CO[C@H]1C[C@@H]2CC[C@@H](C)[C@@](O)(O2)C(=O)C(=O)N2CCCC[C@H]2C(=O)O[C@H]([C@H](C)C[C@@H]2CC[C@H](n3cc(CCCC(=O)NCCOCCOCCOCCC(=O)NCCOCCOCCOCCOCCC(=O)NCCCCn4nc(-c5cc6cc(O)ccc6[nH]5)c5c(N)ncnc54)nn3)[C@H](OC)C2)CC(=O)[C@H](C)/C=C(\C)[C@@H](O)[C@@H](OC)C(=O)[C@H](C)C[C@H](C)/C=C/C=C/C=C/1C [Example 133] | 1 to 10 | 3.16 to 31.6 | 31.6 to 1000 |  | 
4 | COC(=O)N[C@H]1C[C@@H]2CC[C@@H](C)[C@@](O)(O2)C(=O)C(=O)N2CCCC[C@H]2C(=O)O[C@H]([C@H](C)C[C@@H]2CC[C@@H](OCCCCc3cn(CCOCCOCCOCCOCCOCCOCCC(=O)N4CCN(c5ccc(-n6c(=O)n(C)c7cnc8ccc(-c9ccc(OC)nc9)cc8c76)cc5C(F)(F)F)CC4)nn3)[C@H](OC)C2)CC(=O)[C@H](C)/C=C(\C)[C@@H](O)[C@@H](OC)C(=O)[C@H](C)C[C@H](C)/C=C/C=C/C=C/1C [Example 73] | < 1 | < 3.16 | < 3.16 |  | 
5 | CO[C@H]1C[C@@H]2CC[C@@H](C)[C@@](O)(O2)C(=O)C(=O)N2CCCCC2C(=O)O[C@H]([C@H](C)C[C@@H]2CC[C@H](n3cc(COCCOCCOCCOCCOCCOCCOCCOCCOCCOCCC(=O)NCCCCn4nc(-c5ccc6oc(N)nc6c5)c5c(N)ncnc54)nn3)[C@H](OC)C2)CC(=O)[C@H](C)/C=C(\C)[C@@H](O)[C@@H](OC)C(=O)[C@H](C)C[C@H](C)/C=C/C=C/C=C/1C (stereo in doubt) [Example 195] | 1 to 10 | 3.16 to 31.6 | 3.16 to 31.6 |  | 
6 | CO[C@H]1C[C@@H]2CC[C@@H](C)[C@@](O)(O2)C(=O)C(=O)N2CCCC[C@H]2C(=O)O[C@H]([C@H](C)C[C@@H]2CC[C@@H](OCCCCc3cn(CCOCCOCCOCCOCCOCCOCCC(=O)N4CCc5cc(Cn6nc(-c7ccc8oc(N)nc8c7)c7c(N)ncnc76)ccc5C4)nn3)[C@H](OC)C2)CC(=O)[C@H](C)/C=C(\C)[C@@H](O)[C@@H](OC)C(=O)[C@H](C)C[C@H](C)/C=C/C=C/C=C/1C [Example 89] | < 1 | < 3.16 | 3.16 to 31.6 |  | 
7 | CO[C@H]1C[C@@H]2CC[C@@H](C)[C@@](O)(O2)C(=O)C(=O)N2CCCC[C@H]2C(=O)O[C@H]([C@H](C)C[C@@H]2CC[C@H](n3cc(-c4cnc(N5CCN(c6ncc(C(=O)NCCOCCOCCOCCOCCC(=O)NCCCCn7nc(-c8ccc9oc(N)nc9c8)c8c(N)ncnc87)cn6)CC5)nc4)nn3)[C@H](OC)C2)CC(=O)[C@H](C)/C=C(\C)[C@@H](O)[C@@H](OC)C(=O)[C@H](C)C[C@H](C)/C=C/C=C/C=C/1C [Example 115] | < 1 | < 3.16 | < 3.16 |  | 
8 | CO[C@H]1C[C@@H]2CC[C@@H](C)[C@@](O)(O2)C(=O)C(=O)N2CCCC[C@H]2C(=O)O[C@H]([C@H](C)C[C@@H]2CC[C@@H](OCCCCc3cn(CCOCCOCCOCCOCCOCCOCCC(=O)NCCCCn4nc(-c5cnc6[nH]ccc6c5)c5c(N)ncnc54)nn3)[C@H](OC)C2)C[C@@H](OC)[C@H](C)/C=C(\C)[C@@H](O)[C@@H](OC)C(=O)[C@H](C)C[C@H](C)/C=C/C=C/C=C/1C [Example 70] | 1 to 10 | > 1000 | > 1000 |  | 
9 | CO[C@H]1C[C@@H]2CC[C@@H](C)[C@@](O)(O2)C(=O)C(=O)N2CCCC[C@H]2C(=O)O[C@H]([C@H](C)C[C@@H]2CC[C@H](n3cc(COC(=O)NCCOCCOCCOCCC(=O)NCCOCCOCCC(=O)NCCCCn4nc(-c5cc6cc(O)ccc6[nH]5)c5c(N)ncnc54)nn3)[C@H](OC)C2)C/C(=N/OCc2ccccc2)[C@H](C)/C=C(\C)[C@@H](O)[C@@H](OC)C(=O)[C@H](C)C[C@H](C)/C=C/C=C/C=C/1C [Example 155] | > 1000 | > 1000 | > 1000 |  | 
10 | CO[C@H]1C[C@@H]2CC[C@@H](C)[C@@](O)(O2)C(=O)C(=O)N2CCCC[C@H]2C(=O)O[C@H]([C@H](C)C[C@@H]2CC[C@H](n3cc(-c4cccc(C(=O)NCCOCCOCCOCCC(=O)NCCOCCOCCOCCC(=O)NCCCCn5nc(-c6cc7cc(O)ccc7[nH]6)c6c(N)ncnc65)c4)nn3)[C@H](OC)C2)CC(=O)[C@H](C)/C=C(\C)[C@@H](O)[C@@H](OC)C(=O)[C@H](C)C[C@H](C)/C=C/C=C/C=C/1C [Example 138] | 1 to 10 | > 1000 | 31.6 to 1000 |  | 
11 | CO[C@H]1C[C@@H]2CC[C@@H](C)[C@@](O)(O2)C(=O)C(=O)N2CCCC[C@H]2C(=O)O[C@H]([C@H](C)C[C@@H]2CC[C@@H](OCc3cccc(-c4cnc(N5CCN(C(=O)CCc6cn(CCOCCOCCOCCC(=O)NCCCCn7nc(-c8ccc9oc(N)nc9c8)c8c(N)ncnc87)nn6)CC5)nc4)c3)[C@H](OC)C2)CC(=O)[C@H](C)/C=C(\C)[C@@H](O)[C@@H](OC)C(=O)[C@H](C)C[C@H](C)/C=C/C=C/C=C/1C [Example 46] | < 1 | < 3.16 | 3.16 to 31.6 |  | 
12 | CO[C@H]1C[C@@H]2CC[C@@H](C)[C@@](O)(O2)C(=O)C(=O)N2CCCC[C@H]2C(=O)O[C@H]([C@H](C)C[C@@H]2CC[C@@H](O)[C@H](OC)C2)C[C@@H](OC)[C@H](C)/C=C(\C)[C@@H](O)[C@@H](OC)C(=NOCc2cn(CCOCCOCCOCCOCCNC(=O)CCCC(=O)NCCCCn3nc(-c4ccc5oc(N)nc5c4)c4c(N)ncnc43)nn2)[C@H](C)C[C@H](C)/C=C/C=C/C=C/1C [Example 104] | 1 to 10 | 31.6 to 1000 | 31.6 to 1000 |  | 
13 | CO[C@H]1C[C@@H]2CC[C@@H](C)[C@@](O)(O2)C(=O)C(=O)N2CCCC[C@H]2C(=O)O[C@H]([C@H](C)C[C@@H]2CC[C@@H](O)[C@H](OC)C2)C[C@@H](O)[C@H](C)/C=C(\C)[C@@H](O)[C@@H](OC)C(=NOCc2cn(CCOCCOCCOCCOCCOCCOCCOCCOCCC(=O)N3CCc4cc(Cn5nc(-c6ccc7oc(N)nc7c6)c6c(N)ncnc65)ccc4C3)nn2)[C@H](C)C[C@H](C)/C=C/C=C/C=C/1C [Example 87] | < 1 | 3.16 to 31.6 | > 1000 |  | 
14 | CO[C@H]1C[C@@H]2CC[C@@H](C)[C@@](O)(O2)C(=O)C(=O)N2CCCC[C@H]2C(=O)O[C@H]([C@H](C)C[C@@H]2CC[C@@H](OCCCCc3cn(CCOCCOCCOCCOCCOCCOCCC(=O)NCCCCn4nc(-c5cc6cc(O)ccc6[nH]5)c5c(N)ncnc54)nn3)[C@H](OC)C2)CC(=O)[C@H](C)/C=C(\C)[C@@H](O)[C@@H](OC)C(=O)[C@H](C)C[C@H](C)/C=C/C=C/C=C/1C [Example 43] | < 1 |  |  | 31.6 to 1000 | 31.6 to 1000
15 | COC(=O)NC1C[C@@H]2CC[C@@H](C)[C@@](O)(O2)C(=O)C(=O)N2CCCC[C@H]2C(=O)O[C@H]([C@H](C)C[C@@H]2CC[C@@H](OCCCCc3cn(CCOCCOCCOCCOCCOCCOCCOCCOCCC(=O)NCCCCn4nc(-c5ccc6oc(N)nc6c5)c5c(N)ncnc54)nn3)[C@H](OC)C2)CC(=O)[C@H](C)/C=C(\C)[C@@H](O)[C@@H](OC)C(=O)[C@H](C)C[C@H](C)/C=C/C=C/C=C/1C (stereo partly drawn) [Example 38] | 1 to 10 | 3.16 to 31.6 | 31.6 to 1000 |  | 
16 | CO[C@H]1C[C@@H]2CC[C@@H](C)[C@@](O)(O2)C(=O)C(=O)N2CCCC[C@H]2C(=O)O[C@H]([C@H](C)C[C@@H]2CC[C@H](n3nncc3-c3cccc(-c4cn(CCOCCOCCOCCOCCOCCOCCOCCOCCC(=O)NCCCCn5nc(-c6ccc7oc(N)nc7c6)c6c(N)ncnc65)nn4)c3)[C@H](OC)C2)CC(=O)[C@H](C)/C=C(\C)[C@@H](O)[C@@H](OC)C(=O)[C@H](C)C[C@H](C)/C=C/C=C/C=C/1C [Example 62] | > 1000 | > 1000 | > 1000 |  | 
